# Reference: patent US20210330611A1, “THERAPY FOR NEUROLOGICAL DISEASES/DISORDERS” (priority 2020, published 2021)
# pIC50: −log10 of the molar value. Counter-ions that a name gives are not always drawn. Like-named read-outs stand apart in the source and are kept apart here.
# Assays:
# [1] = test system: fibrin-induced microglia activation; assay: Image-based assay of fibrin-induced microglia activation (HTS and dose response); format: cell-based, rat; details: for inhibition at 10 µM: Rattus norvegicus, Microglia, read-out: Fibrin % inhibition; for pIC50: read-out: Fibrin IC50; for IC50: read-out: Fibrin IC50 (uM) (Suppl. Table 7)
# [2] = test system: LPS-induced microglia activation; assay: Image-based assay of LPS-induced microglia activation (HTS and dose response); format: cell-based, rat; details: for inhibition at 10 µM: Rattus norvegicus, Microglia, read-out: LPS % inhibition; for IC50: read-out: LPS IC50 (uM) (Suppl. Table 7); for pIC50: read-out: LPS IC50
# [3] = test system: fibrin- and LPS-induced microglia activation; assay: cells; format: cell-based, rat; details: for Hit: HTS hit classification; for Cherry-picked Hit (Suppl. Table 7): hit classification in microglia HTS
# [4] = test system: primary rat microglia; assay: Cell toxicity (dead cells, size <150 μm2) in LPS assay; details: for IC50: read-out: Cell Toxicity IC50 (uM) [LPS assay]
# [5] = test system: primary rat microglia; assay: Cell toxicity (dead cells, size <150 μm2) in coated fibrin (cFib) assay;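 as to Fibrin % cell toxicity: share of dead cells sized under 150 µm2 at 10 µM in fibrin-stimulated microglia HTS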
# [6] = primary microglia HTS, 10 μM, fibrin-stimulated, cell size >800 μm^2 as marker of activation
# [7] = primary microglia HTS, 10 μM, LPS-stimulated, cell size >800 μm^2 as marker of activation
# [8] = HTS of 1907 compounds, quadrant by fibrin and LPS inhibition
# [9] = primary microglia HTS, 10 μM, LPS assay, cell size <150 μm^2 as marker of toxicity
# [10] = primary microglia HTS, 10 μM, fibrin assay, cell size <150 μm^2 as marker of toxicity
# [11] = primary HTS, 10 μM, fibrin-stimulated primary microglia
# [12] = primary HTS, 10 μM, LPS-stimulated primary microglia
# [13] = primary HTS, 10 μM, LPS assay, dead cells size <150 μm2
# [14] = primary HTS, 10 μM, fibrin assay, dead cells size <150 μm2
# [15] = Table 1, dose response 0.001-20 μM, triplicates, primary rat microglia, 48 h
# [16] = dose response, fibrin-induced microglia activation
# [17] = fibrin-induced microglia activation, dose response
# [18] = primary microglia HTS, fibrin stimulation, increased cell size (>800 μm^2) as marker of activation
# [19] = LPS-induced microglia activation, dose response
# [20] = dose response, LPS-induced microglia activation
# [21] = primary microglia HTS, LPS stimulation, increased cell size (>800 μm^2) as marker of activation
# [22] = quadrant by fibrin and LPS inhibition in HTS of 1907 compounds
# [23] = primary microglia HTS, LPS stimulation, decreased size (<150 μm^2) as marker of toxicity
# [24] = primary microglia HTS, fibrin stimulation, decreased size (<150 μm^2) as marker of toxicity
# [25] = 48 h, primary microglia HTS, LPS stimulation, increased cell size (>800 μm^2) as marker of activation
# [26] = primary microglia HTS, fibrin stimulation, activation = cell size >800 μm2
# [27] = 48 h, primary microglia HTS, LPS stimulation, activation = cell size >800 μm2
# [28] = primary microglia HTS, LPS stimulation, toxicity = cell size <150 μm2
# [29] = primary microglia HTS, fibrin stimulation, toxicity = cell size <150 μm2
Compound,"inhibition at 10 µM [1, 6]","inhibition at 10 µM [2, 7]","Quadrant (FIG. 5b) [3, 8]","LPS % cell toxicity [4, 9]","Fibrin % cell toxicity [5, 10]","Quadrant (FIG. 5b) [3, 22]","LPS % cell toxicity [4, 23]","Fibrin % cell toxicity [5, 24]","inhibition at 10 µM [1, 18]","inhibition at 10 µM [2, 25]",other results
Oc1cc(Cl)ccc1Oc1ccc(Cl)cc1Cl [Triclosan],-6%,16%,Q4,1%,1%,,,,,,
CCCCC1(COC(=O)CCC(=O)O)C(=O)N(c2ccccc2)N(c2ccccc2)C1=O [Suxibuzone],25%,23%,Q4,0%,1%,,,,,,
Nc1nc(/C(=C/CC(=O)O)C(=O)N[C@@H]2C(=O)N3C(C(=O)O)=CCS[C@H]23)cs1 [Ceftibuten],,,,,,,,,,,"inhibition at 10 µM [1, 11]: -7%; inhibition at 10 µM [2, 12]: 12%; Quadrant (FIG. 5b) ([3]; primary HTS, 10 μM): Q4; LPS % cell toxicity [4, 13]: 0%; Fibrin % cell toxicity [5, 14]: 1%"
Colistimethate sodium [reference compound],,,Q2,,,Q2,4%,1%,,,"pIC50 [1, 15]: < 4.70; pIC50 [1, 16]: < 4.70; IC50 [1, 17]: > 20 µM; Fibrin % inhibition [1, 18]: 72%; IC50 [2, 19]: > 20 µM; pIC50 [2, 15]: < 4.70; pIC50 [2, 20]: < 4.70; LPS % inhibition [2, 21]: 112%; Hit [3]: HIT (Hits were defined as molecules that exhibited greater than 50% inhibition of either fibrin or LPS activation); Quadrant (FIG. 5b) ([3]; Table 1, screen at 10 μM): Q2; Cherry-picked Hit (Suppl. Table 7) [3]: HIT (Hits were defined as molecules that exhibited greater than 50% inhibition of either fibrin or LPS activation); IC50 ([4]; LPS assay): > 20 µM; IC50 ([5]; read-out: Cell Toxicity IC50 (uM) [cFib assay], cFib assay): > 20 µM"
CCOC(=O)C1=C(C)NC(C)=C(C(=O)OC)C1c1cccc([N+](=O)[O-])c1 (stereo not drawn) [Nitrendipine],,,,,,Q4,0%,1%,-12%,18%,
C[N+]1(C)[C@@H]2CC[C@H]1C[C@@H](OC(=O)C(O)c1ccccc1)C2 (stereo partly drawn) [Homatropine Methylbromide],,,,,,Q4,,,,,"inhibition at 10 µM [1, 26]: -18%; inhibition at 10 µM [2, 27]: 12%; LPS % cell toxicity [4, 28]: 0%; Fibrin % cell toxicity [5, 29]: 1%"
O=C1C(CC[S+]([O-])c2ccccc2)C(=O)N(c2ccccc2)N1c1ccccc1 (stereo not drawn) [Sulfinpyrazone],-6%,13%,Q4,1%,1%,,,,,,
CCN(CC)CCNC(=O)c1cc(S(C)(=O)=O)ccc1OC [Tiapride],-18%,6%,Q4,0%,0%,,,,,,
CCOc1nc2cccc(C(=O)OC(C)OC(=O)OC3CCCCC3)c2n1Cc1ccc(-c2ccccc2-c2nn[nH]n2)cc1 (stereo not drawn) [Candesartan Cilextil],,,,,,,,,,,"Fibrin % inhibition [1, 11]: −5%; LPS % inhibition [2, 12]: 10%; Quadrant (FIG. 5b) ([3]; primary HTS, 10 μM): Q4; LPS % cell toxicity [4, 13]: 0%; Fibrin % cell toxicity [5, 14]: 1%"
"CCCCCCc1ccc(O)cc1O.Nc1c2ccccc2nc2ccccc12 [Acrisorcin, reference compound]",,,Q2,,,Q2,52%,2%,,,"pIC50 [1, 15]: 5.15; pIC50 [1, 16]: 5.15; IC50 [1, 17]: 7 µM; Fibrin % inhibition [1, 18]: 87%; IC50 [2, 19]: 5 µM; pIC50 [2, 15]: 5.30; pIC50 [2, 20]: 5.30; LPS % inhibition [2, 21]: 113%; Hit [3]: HIT (Hits were defined as molecules that exhibited greater than 50% inhibition of either fibrin or LPS activation); Quadrant (FIG. 5b) ([3]; Table 1, screen at 10 μM): Q2; Cherry-picked Hit (Suppl. Table 7) [3]: HIT (Hits were defined as molecules that exhibited greater than 50% inhibition of either fibrin or LPS activation); IC50 ([4]; LPS assay): 6 µM"
NCc1ccc(S(N)(=O)=O)cc1 [Mafenide],,,,,,Q4,0%,1%,10%,-3%,
Cc1ccnc(NS(=O)(=O)c2ccc(N)cc2)n1 [Sulfamerazine],-2%,12%,Q4,0%,1%,,,,,,
COC(=O)C1=C(C)NC(C)=C(C(=O)OCCN2CCN(C(c3ccccc3)c3ccccc3)CC2)C1c1cccc([N+](=O)[O-])c1 (stereo not drawn) [Manidipine Hydrochloride],,,,,,Q4,1%,1%,-43%,12%,
CC(=O)OCC(=O)[C@@]1(O)CC[C@H]2[C@@H]3CCC4=CC(=O)C=C[C@]4(C)[C@@]3(F)[C@@H](O)C[C@@]21C [Isoflupredone Acetate],,,,,,Q2,2%,3%,106%,90%,
CCN[C@@H]1C[C@H](N)[C@@H](O[C@H]2OC(CN)=CC[C@H]2N)[C@H](O)[C@H]1O[C@H]1OC[C@](C)(O)[C@H](NC)[C@H]1O.CCN[C@@H]1C[C@H](N)[C@@H](O[C@H]2OC(CN)=CC[C@H]2N)[C@H](O)[C@H]1O[C@H]1OC[C@](C)(O)[C@H](NC)[C@H]1O.O=S(=O)(O)O.O=S(=O)(O)O.O=S(=O)(O)O.O=S(=O)(O)O.O=S(=O)(O)O [Netilmicin Sulfate],,,,,,Q4,0%,1%,,,"Fibrin % inhibition [1, 18]: −6%; LPS % inhibition [2, 21]: 12%"
CO/N=C1\C[C@]2(C[C@@H]3C[C@@H](C/C=C(\C)C[C@@H](C)/C=C/C=C4\CO[C@@H]5[C@H](O)C(C)=C[C@@H](C(=O)O3)[C@]45O)O2)O[C@H](/C(C)=C/C(C)C)[C@H]1C [Moxidectin],,,,,,Q4,1%,0%,1%,14%,
CC(C)[C@H](N)C(=O)OCCOCn1cnc2c(=O)[nH]c(N)nc21 [Valaciclovir],12%,15%,Q4,0%,1%,,,,,,
CC(C)CCC[C@@H](C)[C@H]1CC[C@H]2[C@@H]3CC=C4C[C@@H](O)CC[C@]4(C)[C@H]3CC[C@]12C [Cholesterol],,,,,,,,,,,"inhibition at 10 µM [1, 11]: 4%; inhibition at 10 µM [2, 12]: 9%; Quadrant (FIG. 5b) ([3]; primary HTS, 10 μM): Q4; LPS % cell toxicity [4, 13]: 0%; Fibrin % cell toxicity [5, 14]: 0%"
C=CC[C@@H]1/C=C(\C)C[C@H](C)C[C@H](OC)[C@H]2O[C@@](O)(C(=O)C(=O)N3CCCC[C@H]3C(=O)O[C@H](/C(C)=C/[C@@H]3CC[C@@H](O)[C@H](OC)C3)[C@H](C)[C@@H](O)CC1=O)[C@H](C)C[C@@H]2OC [Tacrolimus],27%,14%,Q4,0%,1%,,,,,,
COc1cc(CNC(=O)CCCC/C=C/C(C)C)ccc1O [Capsaicin],,,,,,,,,,,"inhibition at 10 µM [1, 11]: -45%; inhibition at 10 µM [2, 12]: 9%; Quadrant (FIG. 5b) ([3]; primary HTS, 10 μM): Q4; LPS % cell toxicity [4, 13]: 0%; Fibrin % cell toxicity [5, 14]: 1%"
CC1=CC(=O)c2ccccc2C1=O [Menadione],,,,,,Q2,62%,87%,113%,123%,
O=C(NC(=O)c1c(F)cccc1F)Nc1cc(Cl)c(OC(F)(F)C(F)C(F)(F)F)cc1Cl (stereo not drawn) [Lufenuron],,,,,,Q4,0%,1%,15%,13%,
O=[N+]([O-])O[C@@H]1CO[C@H]2[C@@H]1OC[C@@H]2O [Isosorbide Mononitrate],,,,,,Q4,,,,,"inhibition at 10 µM [1, 26]: -17%; inhibition at 10 µM [2, 27]: 15%; LPS % cell toxicity [4, 28]: 1%; Fibrin % cell toxicity [5, 29]: 0%"
